From PMC3251925 (Bioorganic & medicinal chemistry, 2011)
Where two headings read alike, the source gives them in different places.

Experiments:
Edema Factor (EF) [1] = molecular target: T1, Edema Factor (EF) (Bacillus anthracis, UniProt P40136); assay: cell-based; format: cell-based
RAW 264.7 cells = conditions: added alone, at the highest dose tested
[2] = system: enterotoxigenic E.coli (ETEC); format: in vivo; conditions: assuming 5 ml serum/mouse
[3] = system: human GADD45α gene-GFP reporter in TK6 cells (GenM-T01, GenM-C01)
Edema Factor (EF) [4] = molecular target: T1, Edema Factor (EF); conditions: read-out: IC50, inhibition of cAMP production induced by edema toxin; cited from earlier work
[5] = system: enterotoxigenic E.coli (ETEC); conditions: cited from earlier work
cholera toxin = conditions: cited from earlier work
[6] = in vivo; cited from earlier work

T1 sequence (P40136 whole entry, looked up): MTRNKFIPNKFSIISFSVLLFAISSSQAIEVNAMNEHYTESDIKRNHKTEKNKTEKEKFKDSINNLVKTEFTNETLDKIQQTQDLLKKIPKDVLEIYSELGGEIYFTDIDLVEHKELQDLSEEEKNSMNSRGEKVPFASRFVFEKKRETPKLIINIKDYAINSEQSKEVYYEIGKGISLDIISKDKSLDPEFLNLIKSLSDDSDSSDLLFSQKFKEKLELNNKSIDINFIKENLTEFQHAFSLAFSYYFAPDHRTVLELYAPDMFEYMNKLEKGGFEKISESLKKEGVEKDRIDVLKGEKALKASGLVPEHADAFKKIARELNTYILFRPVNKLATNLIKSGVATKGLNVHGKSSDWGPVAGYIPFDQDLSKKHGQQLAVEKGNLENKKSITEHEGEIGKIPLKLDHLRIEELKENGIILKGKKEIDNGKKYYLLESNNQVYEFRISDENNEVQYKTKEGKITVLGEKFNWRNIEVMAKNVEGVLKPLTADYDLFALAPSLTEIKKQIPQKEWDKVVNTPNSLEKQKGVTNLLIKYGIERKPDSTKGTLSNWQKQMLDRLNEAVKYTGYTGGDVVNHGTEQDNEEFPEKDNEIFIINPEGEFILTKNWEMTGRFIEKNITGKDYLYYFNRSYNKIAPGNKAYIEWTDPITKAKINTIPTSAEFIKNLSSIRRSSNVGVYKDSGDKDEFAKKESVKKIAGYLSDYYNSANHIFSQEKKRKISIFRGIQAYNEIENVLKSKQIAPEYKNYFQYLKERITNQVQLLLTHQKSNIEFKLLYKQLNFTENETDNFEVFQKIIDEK

O=C(O)c1cc(NC(=O)c2cccc3c2C(=O)c2ccccc2-3)ccc1O [Compound 9, 2-Hydroxy-5-(9-oxo-9H-fluorene-1-carboxamido)benzoic acid]
EF inhibitory activity, in words (Edema Factor (EF) [1]): inactive

Nc1ccc(NC(=O)c2cccc3c2C(=O)c2ccccc2-3)c(C(=O)O)c1 [Compound 6, 5-Amino-2-(9-oxo-9H-fluorene-1-carboxamido)benzoic acid]
EF inhibitory activity, in words (Edema Factor (EF) [1]): inactive

COC(=O)c1cc(NC(=O)c2cccc3c2C(=O)c2ccccc2-3)ccc1O [Compound 14, Methyl 2-hydroxy-5-(9-oxo-9H-fluorene-1-carboxamido)benzoate]
EF inhibitory activity, in words (Edema Factor (EF) [1]): completely inactive
IC50 (Edema Factor (EF) [1]): 249 µM

3-[(Biphenyl-3-carbonyl)-amino]-benzoic acid [Compound 2]
IC50 (Edema Factor (EF) [1]; read-out: IC50 (μM) Assay 1): 19 µM

CN(C)c1cccc(NC(=O)c2cccc3c2C(=O)c2ccccc2-3)c1 [Compound 19, N-(3-(dimethylamino)phenyl)-9-oxo-9H-fluorene-1-carboxamide]
Obvious toxicity to cultured cells (RAW 264.7 cells): neither caused obvious toxicity

O=C(Nc1ccccc1)c1cccc2c1C(=O)c1ccccc1-2 [Compound 4, 9-oxo-N-phenyl-9H-fluorene-1-carboxamide]
EF inhibitory activity, in words (Edema Factor (EF) [1]): relatively inactive

Nc1cc(NC(=O)c2cccc3c2C(=O)c2ccccc2-3)cc(C(=O)O)c1 [Compound 10, 3-amino-5-(9-oxo-9H-fluorene-1-carboxamido)benzoic acid]
IC50 (Edema Factor (EF) [1]): 1.3 µM
Obvious toxicity to cultured cells (RAW 264.7 cells): neither caused obvious toxicity

O=C(O)c1cccc(NC(=O)c2cccc3c2C(=O)c2ccccc2-3)c1 [Compound 1, 3-(9-oxo-9H-fluorene-1-carboxamido)benzoic acid]
IC50 (Edema Factor (EF) [1]): 1.64 to 12.3 µM
Active dose in mice expressed as concentration [2]: about 3 μg/ml
Mutagenicity (tester strain TAMix): non-mutagenic
Number of revertants (tester strain TAMix): doubling
Concentration determined to be cytotoxic [3]: 62.5 µg/mL
Concentration with genotoxic activity (positive response) [3]: 62.5 µg/mL
Obvious toxicity to cultured cells (RAW 264.7 cells): no obvious toxic effect
IC50 (Edema Factor (EF) [4]): 2 to 9 µM
Effective dose to reduce diarrhea in mice (from ETEC) ([5]; intraperitoneally or by gavage, per mouse): 7.5 to 15 µg
Diarrhea caused by ETEC ([5]; mouse, oral gavage dose of 15 μg/mouse): reduced diarrhea
Levels of bacteria in the colons of infected and treated mice ([5]; versus mice that did not receive the compound): much lower
Inhibition of cholera toxin (cholera toxin): inhibits cholera toxin
Obvious toxic effect in mouse studies [6]: no obvious toxic effect
